Consider two compounds from ChEMBL document CHEMBL5653615 (J Biol Chem, 2013).

Molecules are shown by their SMILES.

The inhibition is the drop in the measured response relative to a control, in per cent.

For assay [1], the target named is Mitogen-activated protein kinase kinase kinase 8 (Homo sapiens) (UniProt P41279). Description: Inhibition of human COT1 at 500 nM by HotSpot assay relative to control.
Assay [2] has as its target Serine/threonine-protein kinase MRCK beta (Homo sapiens) (UniProt Q9Y5S2). The assay is described as follows: Inhibition of human CDC42BPB at 500 nM by HotSpot assay relative to control.
In assay [3] the target is T1, Beta-adrenergic receptor kinase 1 (Homo sapiens) (UniProt P25098).
T1 sequence (whole entry): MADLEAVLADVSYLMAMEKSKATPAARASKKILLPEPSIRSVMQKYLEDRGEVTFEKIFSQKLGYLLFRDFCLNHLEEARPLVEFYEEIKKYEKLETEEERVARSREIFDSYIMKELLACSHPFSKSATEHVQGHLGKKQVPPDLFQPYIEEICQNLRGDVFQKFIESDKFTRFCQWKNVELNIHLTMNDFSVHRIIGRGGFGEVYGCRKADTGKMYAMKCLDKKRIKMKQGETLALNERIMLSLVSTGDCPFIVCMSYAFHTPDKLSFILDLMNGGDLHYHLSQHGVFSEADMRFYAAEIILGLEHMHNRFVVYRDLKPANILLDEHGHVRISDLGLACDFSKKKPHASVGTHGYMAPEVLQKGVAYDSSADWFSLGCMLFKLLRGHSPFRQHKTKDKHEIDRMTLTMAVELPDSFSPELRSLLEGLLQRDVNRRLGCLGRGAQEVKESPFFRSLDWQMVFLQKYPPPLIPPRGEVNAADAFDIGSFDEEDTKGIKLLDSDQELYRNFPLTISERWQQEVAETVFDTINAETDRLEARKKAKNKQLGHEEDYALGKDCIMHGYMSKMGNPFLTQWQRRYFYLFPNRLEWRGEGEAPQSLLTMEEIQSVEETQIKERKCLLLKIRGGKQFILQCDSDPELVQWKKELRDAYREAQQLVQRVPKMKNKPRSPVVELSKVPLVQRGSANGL
Description: Inhibition of human GRK2 at 500 nM by HotSpot assay relative to control.

The target in assay [4] is Serine/threonine-protein kinase SIK2 (Homo sapiens) (UniProt Q9H0K1). Description: Inhibition of human SIK2 at 500 nM by HotSpot assay relative to control.
In assay [5] the target is Casein kinase II subunit alpha' (Homo sapiens) (UniProt P19784). The assay is described as follows: Inhibition of human CK2a2 at 500 nM by HotSpot assay relative to control.
The target in assay [6] is cAMP-dependent protein kinase (PKA) (Homo sapiens) (UniProt P22694+P17612+P22612). Description: Inhibition of human PKA at 500 nM by HotSpot assay relative to control. Format: protein assay.
For assay [7], the target named is Focal adhesion kinase 1 (Homo sapiens) (UniProt Q05397). Description: Inhibition of human FAK at 500 nM by HotSpot assay relative to control.
The target of assay [8] is Serine/threonine-protein kinase 25 (Homo sapiens) (UniProt O00506). The assay is described as follows: Inhibition of human YSK1 at 500 nM by HotSpot assay relative to control.
Assay [9] deals with Serine/threonine-protein kinase PLK3 (Homo sapiens) (UniProt Q9H4B4). The assay is described as follows: Inhibition of human PLK3 at 500 nM by HotSpot assay relative to control.
Chain of Serine/threonine-protein kinase PLK3 (Homo sapiens) (Q9H4B4 whole entry, looked up): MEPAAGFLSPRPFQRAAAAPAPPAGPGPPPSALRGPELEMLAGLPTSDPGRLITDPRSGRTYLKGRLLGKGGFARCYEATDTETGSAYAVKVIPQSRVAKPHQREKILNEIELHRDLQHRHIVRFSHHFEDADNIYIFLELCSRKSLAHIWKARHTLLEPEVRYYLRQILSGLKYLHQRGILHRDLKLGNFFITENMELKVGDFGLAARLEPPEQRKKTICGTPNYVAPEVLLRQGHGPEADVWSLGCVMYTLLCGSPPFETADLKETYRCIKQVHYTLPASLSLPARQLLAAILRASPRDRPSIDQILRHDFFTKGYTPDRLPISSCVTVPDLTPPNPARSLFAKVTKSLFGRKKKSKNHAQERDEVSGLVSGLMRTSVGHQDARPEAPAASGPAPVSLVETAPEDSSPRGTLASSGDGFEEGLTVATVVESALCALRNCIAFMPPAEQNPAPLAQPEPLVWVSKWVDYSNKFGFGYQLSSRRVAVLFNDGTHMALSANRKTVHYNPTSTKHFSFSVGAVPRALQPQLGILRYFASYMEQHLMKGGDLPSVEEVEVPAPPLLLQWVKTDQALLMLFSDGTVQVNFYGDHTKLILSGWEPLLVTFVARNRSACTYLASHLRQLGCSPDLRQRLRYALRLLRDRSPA
Assay [10] has as its target Interleukin-1 receptor-associated kinase 1 (Homo sapiens) (UniProt P51617). The assay is described as follows: Inhibition of human IRAK1 at 500 nM by HotSpot assay relative to control.
The target of assay [11] is Leucine-rich repeat serine/threonine-protein kinase 2 (Homo sapiens) (UniProt Q5S007). The assay is described as follows: Inhibition of human LRRK2 at 500 nM by HotSpot assay relative to control.
Assay [12] addresses T2, NUAK family SNF1-like kinase 1 (Homo sapiens) (UniProt O60285).
T2 sequence (whole entry): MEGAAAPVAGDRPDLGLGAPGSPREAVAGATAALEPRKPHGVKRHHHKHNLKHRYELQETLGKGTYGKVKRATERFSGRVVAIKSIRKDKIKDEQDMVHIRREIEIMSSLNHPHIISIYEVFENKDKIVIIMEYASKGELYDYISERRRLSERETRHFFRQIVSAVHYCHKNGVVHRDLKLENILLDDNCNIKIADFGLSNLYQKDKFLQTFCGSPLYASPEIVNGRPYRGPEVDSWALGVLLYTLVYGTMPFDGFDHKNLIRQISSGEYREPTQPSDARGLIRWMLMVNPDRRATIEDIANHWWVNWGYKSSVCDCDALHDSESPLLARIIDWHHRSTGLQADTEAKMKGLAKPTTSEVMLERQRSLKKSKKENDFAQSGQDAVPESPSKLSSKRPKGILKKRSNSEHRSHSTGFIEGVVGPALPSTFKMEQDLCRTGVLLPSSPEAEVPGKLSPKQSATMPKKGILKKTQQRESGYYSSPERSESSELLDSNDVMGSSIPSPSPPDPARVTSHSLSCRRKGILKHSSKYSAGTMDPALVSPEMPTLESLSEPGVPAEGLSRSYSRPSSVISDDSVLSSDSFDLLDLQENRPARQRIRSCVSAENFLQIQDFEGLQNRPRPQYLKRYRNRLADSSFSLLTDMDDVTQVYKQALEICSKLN
Description: Inhibition of human ARK5 at 500 nM by HotSpot assay relative to control.

In assay [13] the target is MAP kinase-interacting serine/threonine-protein kinase 1 (Homo sapiens) (UniProt Q9BUB5). Description: Inhibition of human MNK1 at 500 nM by HotSpot assay relative to control.
The target in assay [14] is Tyrosine-protein kinase JAK1 (Homo sapiens) (UniProt P23458). Description: Inhibition of human JAK1 at 500 nM by HotSpot assay relative to control.
Chain of Tyrosine-protein kinase JAK1 (Homo sapiens) (P23458 whole entry): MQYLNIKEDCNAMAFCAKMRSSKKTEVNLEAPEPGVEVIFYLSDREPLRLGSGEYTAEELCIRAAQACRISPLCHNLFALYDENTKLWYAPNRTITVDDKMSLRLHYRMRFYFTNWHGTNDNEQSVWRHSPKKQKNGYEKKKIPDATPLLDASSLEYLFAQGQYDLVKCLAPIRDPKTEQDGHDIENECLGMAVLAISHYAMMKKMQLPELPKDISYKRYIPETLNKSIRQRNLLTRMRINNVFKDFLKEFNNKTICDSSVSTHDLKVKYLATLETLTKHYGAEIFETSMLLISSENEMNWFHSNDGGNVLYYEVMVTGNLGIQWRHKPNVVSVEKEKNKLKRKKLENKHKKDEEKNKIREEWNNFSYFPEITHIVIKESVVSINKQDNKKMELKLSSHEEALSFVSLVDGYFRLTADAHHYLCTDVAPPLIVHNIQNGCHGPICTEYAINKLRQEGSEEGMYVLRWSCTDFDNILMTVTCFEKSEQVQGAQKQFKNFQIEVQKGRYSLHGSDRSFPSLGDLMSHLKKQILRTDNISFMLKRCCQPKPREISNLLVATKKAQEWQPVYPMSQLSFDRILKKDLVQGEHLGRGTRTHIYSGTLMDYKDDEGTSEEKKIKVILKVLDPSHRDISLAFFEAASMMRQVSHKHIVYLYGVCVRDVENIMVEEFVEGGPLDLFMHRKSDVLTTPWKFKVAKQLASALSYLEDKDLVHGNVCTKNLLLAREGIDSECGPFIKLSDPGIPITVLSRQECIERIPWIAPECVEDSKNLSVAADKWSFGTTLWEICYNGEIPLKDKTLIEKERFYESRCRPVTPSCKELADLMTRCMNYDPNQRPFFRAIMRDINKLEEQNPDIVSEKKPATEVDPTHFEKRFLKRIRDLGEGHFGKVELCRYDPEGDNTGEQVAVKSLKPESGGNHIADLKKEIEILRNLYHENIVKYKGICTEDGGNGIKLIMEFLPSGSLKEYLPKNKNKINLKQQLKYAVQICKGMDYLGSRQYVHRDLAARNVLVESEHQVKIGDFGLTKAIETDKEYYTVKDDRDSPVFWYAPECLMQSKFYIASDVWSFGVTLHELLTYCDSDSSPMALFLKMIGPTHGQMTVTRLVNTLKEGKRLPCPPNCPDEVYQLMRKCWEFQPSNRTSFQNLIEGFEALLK
The target of assay [15] is Serine/threonine-protein kinase PAK 5 (Homo sapiens) (UniProt Q9P286). Description: Inhibition of human PAK5 at 500 nM by HotSpot assay relative to control.
Chain of Serine/threonine-protein kinase PAK 5 (Homo sapiens) (Q9P286 whole entry, looked up): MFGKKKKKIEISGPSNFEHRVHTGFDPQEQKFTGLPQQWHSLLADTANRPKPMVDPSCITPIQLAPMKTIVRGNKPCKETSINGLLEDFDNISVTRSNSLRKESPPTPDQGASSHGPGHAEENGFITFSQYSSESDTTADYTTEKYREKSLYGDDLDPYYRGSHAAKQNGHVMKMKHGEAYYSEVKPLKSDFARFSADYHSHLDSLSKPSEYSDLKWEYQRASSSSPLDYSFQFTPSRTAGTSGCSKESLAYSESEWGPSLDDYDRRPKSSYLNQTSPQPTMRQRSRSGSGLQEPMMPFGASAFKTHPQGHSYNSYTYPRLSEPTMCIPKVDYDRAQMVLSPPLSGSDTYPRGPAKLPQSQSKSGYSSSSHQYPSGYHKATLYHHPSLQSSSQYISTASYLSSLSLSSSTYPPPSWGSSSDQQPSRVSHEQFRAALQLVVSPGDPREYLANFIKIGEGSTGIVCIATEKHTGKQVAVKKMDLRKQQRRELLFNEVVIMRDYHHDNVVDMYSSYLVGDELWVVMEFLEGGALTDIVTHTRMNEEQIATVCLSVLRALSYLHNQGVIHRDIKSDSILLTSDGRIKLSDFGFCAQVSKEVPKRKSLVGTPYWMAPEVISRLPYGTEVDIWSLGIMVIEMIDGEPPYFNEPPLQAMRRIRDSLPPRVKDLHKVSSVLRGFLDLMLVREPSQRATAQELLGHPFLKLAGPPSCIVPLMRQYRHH
The target of assay [16] is Dual specificity protein kinase CLK4 (Homo sapiens) (UniProt Q9HAZ1). Description: Inhibition of human CLK4 at 500 nM by HotSpot assay relative to control.
Chain of Dual specificity protein kinase CLK4 (Homo sapiens) (Q9HAZ1 whole entry, looked up): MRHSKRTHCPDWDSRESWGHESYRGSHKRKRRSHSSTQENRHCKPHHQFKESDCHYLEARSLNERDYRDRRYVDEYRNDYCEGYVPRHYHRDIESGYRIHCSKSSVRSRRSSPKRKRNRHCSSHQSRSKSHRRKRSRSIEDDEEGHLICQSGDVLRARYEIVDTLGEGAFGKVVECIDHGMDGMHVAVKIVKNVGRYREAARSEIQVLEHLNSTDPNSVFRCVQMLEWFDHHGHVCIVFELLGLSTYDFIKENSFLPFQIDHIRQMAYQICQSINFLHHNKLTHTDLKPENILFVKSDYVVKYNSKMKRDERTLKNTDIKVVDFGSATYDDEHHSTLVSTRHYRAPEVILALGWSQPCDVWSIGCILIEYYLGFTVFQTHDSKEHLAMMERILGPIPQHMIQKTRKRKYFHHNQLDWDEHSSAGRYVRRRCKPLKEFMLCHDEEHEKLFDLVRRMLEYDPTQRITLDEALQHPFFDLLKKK
The target in assay [17] is MAP kinase-interacting serine/threonine-protein kinase 2 (Homo sapiens) (UniProt Q9HBH9). Description: Inhibition of human MNK2 at 500 nM by HotSpot assay relative to control.
Assay [18] has as its target NT-3 growth factor receptor (Homo sapiens) (UniProt Q16288). Description: Inhibition of human TRKC at 500 nM by HotSpot assay relative to control.
For assay [19], the target named is Dual specificity tyrosine-phosphorylation-regulated kinase 1A (Homo sapiens) (UniProt Q13627). The assay is described as follows: Inhibition of human DYRK1 at 500 nM by HotSpot assay relative to control.
The target in assay [20] is Insulin-like growth factor 1 receptor (Homo sapiens, UniProt P08069). The assay is described as follows: Inhibition of human IGF1R at 500 nM by HotSpot assay relative to control.
In assay [21] the target is Tyrosine-protein kinase SYK (Homo sapiens) (UniProt P43405). Description: Inhibition of human SYK at 500 nM by HotSpot assay relative to control.
Assay [22] addresses Casein kinase I isoform gamma-3 (Homo sapiens) (UniProt Q9Y6M4). Description: Inhibition of human CK1g3 at 500 nM by HotSpot assay relative to control.

Chain of NT-3 growth factor receptor (Homo sapiens) (Q16288 32-839 limits assumed): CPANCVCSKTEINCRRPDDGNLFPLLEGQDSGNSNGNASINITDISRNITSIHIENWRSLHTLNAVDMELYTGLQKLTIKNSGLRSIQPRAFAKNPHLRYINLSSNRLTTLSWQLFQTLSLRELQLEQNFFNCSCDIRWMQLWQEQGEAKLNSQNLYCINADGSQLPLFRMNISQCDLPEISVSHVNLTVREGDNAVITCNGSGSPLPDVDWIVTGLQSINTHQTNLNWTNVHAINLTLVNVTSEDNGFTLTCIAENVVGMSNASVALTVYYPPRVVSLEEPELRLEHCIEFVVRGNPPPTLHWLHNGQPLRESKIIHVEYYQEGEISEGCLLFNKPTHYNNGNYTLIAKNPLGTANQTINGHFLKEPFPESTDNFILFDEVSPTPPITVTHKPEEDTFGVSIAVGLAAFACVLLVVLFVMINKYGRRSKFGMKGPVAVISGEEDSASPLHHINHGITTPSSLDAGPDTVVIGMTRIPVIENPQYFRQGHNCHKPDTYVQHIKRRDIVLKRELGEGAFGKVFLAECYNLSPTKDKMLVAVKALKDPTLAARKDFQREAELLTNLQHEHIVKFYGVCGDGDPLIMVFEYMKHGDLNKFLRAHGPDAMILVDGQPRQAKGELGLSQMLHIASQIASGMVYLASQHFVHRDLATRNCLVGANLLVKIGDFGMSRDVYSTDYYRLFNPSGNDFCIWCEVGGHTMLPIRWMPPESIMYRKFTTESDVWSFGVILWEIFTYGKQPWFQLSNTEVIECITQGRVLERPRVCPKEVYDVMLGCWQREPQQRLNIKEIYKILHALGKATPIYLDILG
Chain of Mitogen-activated protein kinase kinase kinase 8 (Homo sapiens) (P41279 whole entry): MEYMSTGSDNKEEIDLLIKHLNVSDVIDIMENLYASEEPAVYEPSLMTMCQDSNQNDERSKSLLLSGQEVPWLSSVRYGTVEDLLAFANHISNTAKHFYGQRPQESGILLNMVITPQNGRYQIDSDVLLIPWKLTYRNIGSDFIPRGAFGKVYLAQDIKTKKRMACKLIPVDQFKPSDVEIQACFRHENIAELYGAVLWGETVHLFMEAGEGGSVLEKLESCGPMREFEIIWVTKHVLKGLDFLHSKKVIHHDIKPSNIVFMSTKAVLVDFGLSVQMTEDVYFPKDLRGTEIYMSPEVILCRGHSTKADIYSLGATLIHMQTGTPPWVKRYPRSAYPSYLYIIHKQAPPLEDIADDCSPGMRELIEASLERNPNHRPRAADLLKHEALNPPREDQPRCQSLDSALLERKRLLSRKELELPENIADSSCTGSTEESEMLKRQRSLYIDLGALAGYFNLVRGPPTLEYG
Chain of Interleukin-1 receptor-associated kinase 1 (Homo sapiens) (P51617 whole entry, looked up): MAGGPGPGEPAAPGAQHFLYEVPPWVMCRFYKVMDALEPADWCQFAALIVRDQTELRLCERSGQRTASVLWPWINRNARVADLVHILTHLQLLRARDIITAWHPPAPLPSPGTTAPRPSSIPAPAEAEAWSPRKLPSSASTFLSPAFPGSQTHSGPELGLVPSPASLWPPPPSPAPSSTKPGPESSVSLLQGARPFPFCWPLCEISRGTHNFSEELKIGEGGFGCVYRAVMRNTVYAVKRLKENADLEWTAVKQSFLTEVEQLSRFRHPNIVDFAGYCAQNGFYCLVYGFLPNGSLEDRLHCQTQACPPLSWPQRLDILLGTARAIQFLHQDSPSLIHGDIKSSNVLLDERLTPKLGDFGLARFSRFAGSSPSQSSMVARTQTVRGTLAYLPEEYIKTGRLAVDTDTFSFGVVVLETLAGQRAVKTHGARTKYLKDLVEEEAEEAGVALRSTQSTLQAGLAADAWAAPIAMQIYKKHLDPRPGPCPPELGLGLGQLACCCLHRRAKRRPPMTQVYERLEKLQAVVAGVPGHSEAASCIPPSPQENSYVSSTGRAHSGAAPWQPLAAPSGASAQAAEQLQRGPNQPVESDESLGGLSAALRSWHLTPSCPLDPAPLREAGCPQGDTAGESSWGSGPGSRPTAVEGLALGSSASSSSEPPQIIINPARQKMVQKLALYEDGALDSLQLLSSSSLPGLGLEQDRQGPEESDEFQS

As for `Oc1n[nH]c2nnc(-c3c(-c4ccccc4)nn4ccccc34)cc12`, the inhibition in [1] was 4.58%; in [2], 4.33%; in assay [3] it was 5.01%; in assay [4] it was 14.5%; in [5], 6.97%; in assay [6] it was -5.26%. Moreover, the inhibition is -3.2% in assay [7]; 4.81% in assay [8]; 1.17% in [9]; -2.21% in [10]; -1.49% in assay [11]; 1.9% in assay [12]. In addition, the inhibition in [13] is 0.89%; in assay [14] it was -1.98%; in [15], 11.6%; in assay [16] it was -0.68%; in [17], -6.03%; in assay [18], 2.25%. In addition, the inhibition in assay [19] is -2.58%; in assay [20], -4.89%; in assay [21], 0.47%; in [22], -4.44%.
In the case of `Nc1n[nH]c2nnc(-c3c(-c4ccccc4)nn4ccccc34)cc12`, the inhibition came to 4.98% in [1]; 6.62% in assay [2]; 4.99% in [3]; 6.36% in assay [4]; 6.59% in [5]; 2.35% in assay [6]. Further, the inhibition in assay [7] was 0.84%; in assay [8] it was 15.8%; in assay [9], -0.08%; in [10], 0.31%; in assay [11], 8.17%; in assay [12] it was 7.47%. Besides, the inhibition in assay [13] was 1.48%; in assay [14], -3.59%; in [15], 1.83%; in [16] it was 5.12%; in assay [17] it was 1.7%; in [18], 23.4%. The inhibition in [19] is -1.99%; in assay [20], -1.88%; in assay [21] it was 2.6%; in assay [22], 6.29%.
